No end group written: not given here.

The text below walks through data of patent US20050053575A1, “Antigenic product displaying multiple copies of an epitope of a deposit-forming polypeptide involved in plaque-forming diseases and methods of using same” (Ramot At Tel Aviv University Ltd, priority 2001, published 2005).

Assay [1] deals with amyloid anti-aggregating antibody. To be noted: Frenkel et al. 1998; ELISA; Nd = IC50 which cannot be detected by ELISA; read-out: Competitive inhibition of anti-aggregating antibody (IC50); cited from earlier work. (In general: ELISA stands for enzyme-linked immunosorbent assay.)
The test system of assay [2] is serum antibody raised against f88-EFRH. The experiment in a line: Competitive inhibition by peptides within βAP of serum antibody raised against f88-EFRH (ELISA). To be noted: Nd = IC50 which cannot be detected by ELISA, read-out: Competitive inhibition of MICE SERUM antibody (IC50). The format is binding. From the text:
The antibodies resulting from EFRH (SEQ ID NO:5) phage immunization are similar regarding their immunological properties to antibodies raised by direct injection with whole β-amyloid (Table 1). […] The high immunogenicity of filamentous phages enables the raising of antibodies against self-antigens.

For assay [3], the system named is β-amyloid peptide 1-16 (EFRH-epitope). Nature of the assay: Immunization of Balb/C mice; serum Ig titers by ELISA against the EFRH-epitope (β-amyloid peptide 1-16). The format is in vivo. As to conditions: i.p., filamentous phage as adjuvant, five injections; FIG. 10. How it is done:
Four mice (named A, B, C, D) were immunized at two week intervals with 100 μg of MAP-[…] (SEQ ID NO:1)+adjuvant (either Complete Freund's or Incomplete Freund's adjuvant) by intraperitoneal injection, and two mice were immunized with H2O+adjuvant as a negative control. All mice were 8 week old female mice.
In experiments of antibody binding to β-amyloid peptide 1-16, 100 ng/well biotinylated β-amyloid peptides 1-16 were bound to streptavidin-coated microtiter plates for ½ h at room temperature. ELISA plates were previously coated with streptavidin for 16 h at 4° C. after washing, bound antibodies to β-peptide were detected by incubation with horseradish peroxidase-conjugated antibodies, as previously described in Frenkel et al. (1999). The Ig type was measured with rabit anti-mouse IgG and anti-mouse IgM labeled with horseradish peroxidase.
Two female mice 8 weeks old (named A and B) were immunized at approximately two week intervals with 200 μg of MAP-(EFRH)2+filamentous phage as adjuvant by intraperitoneal injection.
Two female mice 8 weeks old (named G and H) were immunized at approximately two week intervals with the streptavidin and biotinylated MAP-[…] (SEQ ID NO:1) complex (100 μg of MAP-[…] (SEQ ID NO:1) per mouse) by intraperitoneal injection without adjuvant.

As a reminder, the IC50 is the concentration at which inhibition is half-maximal. Turning to DAEFRH [peptide, residues 1-6 of AβP], the IC50 was 0.8 µM in assay [1] and 3 µM in assay [2].

With DAEFRHD [peptide, residues 1-7 of AβP], the IC50 in assay [1] is 0.9 µM; in assay [2], 5 µM.

As to DAEFRHDSG, the IC50 in assay [1] is 1 µM; in assay [2] it was 5 µM.

On to “FRH: peptide, residues 4-6 of AβP (Amyloid-beta protein 40; UniProt P05067 675-677, looked up, fragment)”, for which the IC50 in assay [1] was 3000 µM; in assay [2], around 1000 µM.

In the case of “MAP-(EFRH)2: octavalent MAP carrying TyrGluPheArgHisTyrGluPheArgHis (SEQ ID NO:4), two EFRH epitopes per peptide (YEFRHYEFRH; also: octavalent lysine-core MAP)”, the “Immune response (serum IgG titers)” value in assay [3] is “strong immune response”.

Consider “βAP(1-40): full length β-amyloid peptide (1-40)”, for which the IC50 in assay [1] is 0.8 µM; in assay [2], 3 µM.
